Test results taken from patent US20060030566A1, “Novel quinoxalinone norepinephrine reuptake inhibitors for the treatment of central nervous system disorders” (Warner-Lambert Company, LLC, priority 2004, published 2006).
Counter-ions that a name gives are not always drawn.

Key:
[1] = target: T1, human norepinephrine transporter (Homo sapiens, UniProt P23975); assay: hNET receptor binding ([125I]-RTI-55 radioligand binding, membranes of transfected HEK-293 cells); conditions: 50 pM [125I]-RTI-55, HEK-293 cell membranes, 90 min at room temperature; IC50 converted to Ki by Cheng-Prusoff equation
T1 construct: host or cells: HEK-293
Source text: The ability of the compounds of this invention to bind to the hNET and serotonin SERT receptor can be determined using conventional radioligand receptor binding assays. The receptors can be heterologously expressed in cell lines and experiments conducted in membrane preparations from the cell lines using procedures outlined below. IC50 concentrations can be determined by nonlinear regression of concentration-dependent reduction in specific binding. The Cheng-Prussoff equation can be used to convert the IC50 to Ki concentrations.
Cell pastes of HEK-293 cells transfected with the human norepinephrine transporter were supplied by the Pfizer Ann Arbor Protein Expression and Production group. Pellets were resuspended in 400 to 700 ml of Krebs-HEPES assay buffer (25 mM HEPES, 122 mM NaCl, 3 mM KCl, 1.2 mM MgSO4, 1.3 mM CaCl2, and 11 mM glucose, pH 7.4) with a Polytron homogenizer at setting 7 for 30 sec. Aliquots of membranes (5 mg/ml protein) were stored in liquid nitrogen until used.
The binding assay was set up in Beckman deep-well polypropylene plates with a total volume of 250 μl containing: drug (10^−5M to 10^−12M), cell membranes, and 50 pM [^125I]-RTI-55 (Perkin Elmer, NEX-272; specific activity 2200 Ci/mmol). The reaction was incubated by gentle agitation for 90 min at room temperature and was terminated by filtration through Whatman GF/C filter plates using a Brandel 96-well plate harvester. Scintillation fluid (100 μl) was added to each well, and bound [^125I]-RTI-55 was determined using a Wallac Trilux Beta Plate Counter. Test compounds were run in duplicate, and specific binding was defined as the difference between binding in the presence and absence of 10 μM desipramine.
Excel and GraphPad Prism software were used for data calculation and analysis. IC50 values were converted to Ki values using the Cheng-Prusoff equation.

T1 sequence (P23975 whole entry): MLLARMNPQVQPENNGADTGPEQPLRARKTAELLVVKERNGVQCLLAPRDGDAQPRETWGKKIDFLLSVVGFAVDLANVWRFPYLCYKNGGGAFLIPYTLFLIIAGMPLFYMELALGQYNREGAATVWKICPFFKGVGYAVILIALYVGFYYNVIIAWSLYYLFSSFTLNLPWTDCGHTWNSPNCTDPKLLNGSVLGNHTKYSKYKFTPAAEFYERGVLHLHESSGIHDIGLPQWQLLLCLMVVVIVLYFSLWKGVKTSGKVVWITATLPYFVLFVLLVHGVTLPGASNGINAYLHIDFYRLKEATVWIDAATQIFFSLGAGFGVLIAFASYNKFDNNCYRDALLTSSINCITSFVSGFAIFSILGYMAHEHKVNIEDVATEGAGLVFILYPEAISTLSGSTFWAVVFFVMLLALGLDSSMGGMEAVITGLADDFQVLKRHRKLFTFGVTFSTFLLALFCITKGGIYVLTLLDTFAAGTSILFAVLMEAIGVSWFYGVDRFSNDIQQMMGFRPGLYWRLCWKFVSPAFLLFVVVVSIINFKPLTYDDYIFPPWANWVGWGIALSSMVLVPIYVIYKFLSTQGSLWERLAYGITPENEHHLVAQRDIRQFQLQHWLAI

In the case of `O=c1c(N2CCCNCC2)nc2ccccc2n1-c1ccccc1Cl` (as salt: maleate) [Example 11, 1-(2-Chloro-phenyl)-3-[1,4]diazepan-1-yl-1H-quinoxalin-2-one Maleate], the melting point is reported as 159 to 161 °C.

`O=c1c(N2CCNCC2)nc2ccccc2n1-c1ccccc1` (as salt: hydrochloride) [Example 2, 1-Phenyl-3-piperazin-1-yl-1H-quinoxalin-2-one Hydrochloride] showed a melting point of 290 to 292 °C.

Compound `Cc1ccc(-n2c(=O)c(N3CCNCC3)nc3ccccc32)cc1` (as salt: maleate) [Example 7, 3-Piperazin-1-yl-1-p-tolyl-1H-quinoxalin-2-one Maleate] has a melting point of 197 to 199 °C.

In the case of `O=c1c(N2CCNCC2)nc2cc(F)ccc2n1-c1ccccc1` [Example 1, 6-Fluoro-1-phenyl-3-piperazin-1-yl-1H-quinoxalin-2-one], the Ki [1] is reported as 12 nM and the melting point is reported as 150 to 152 °C.

For `O=c1c(N2CCCNCC2)nc2cc(F)ccc2n1-c1ccccc1` [Example 14, 3-[1,4]Diazepan-1-yl-6fluoro-1-phenyl-1H-quinoxalin-2-one], the Ki [1] was 27 nM and the melting point was 151 to 152 °C.

With `O=c1c(N2CCNCC2)nc2ccccc2n1-c1ccccc1F` (as salt: hydrochloride) [Example 3, 1-(2-Fluoro-phenyl)-3-piperazin-1-yl-1H-quinoxalin-2-one Hydrochloride] the melting point was 261 to 263 °C.

With `Cc1ccc(-n2c(=O)c(N3CCNCC3)nc3ccccc32)cc1` [Example 7, 3-Piperazin-1-yl-1-p-tolyl-1H-quinoxalin-2-one Maleate] the Ki [1] was 36 nM.

`O=c1c(N2CCCNCC2)nc2ccccc2n1-c1cccc(F)c1` [Example 12, 3-[1,4]Diazepan-1-yl-1-(3-fluoro-phenyl)-1H-quinoxalin-2-one] showed a Ki [1] of 60 nM and a melting point of 128 to 129 °C.

Compound `O=c1c(N2CCNCC2)nc2ccccc2n1-c1ccccc1Cl` [Example 4, 1-(2-Chloro-phenyl)-3-piperazin-1-yl-1H-quinoxalin-2-one] has a Ki [1] of 44 nM and a melting point of 135 to 137 °C.

`Cc1ccccc1-n1c(=O)c(N2CCNCC2)nc2ccccc21` [Example 5, 3-Piperazin-1-yl-1-o-tolyl-1H-quinoxalin-2-one] gave a Ki [1] of 69 nM and a melting point of 151 to 153 °C.

Work on `O=c1c(N2CCCNCC2)nc2ccccc2n1-c1ccccc1Cl` [Example 11, 1-(2-Chloro-phenyl)-3-[1,4]diazepan-1-yl-1H-quinoxalin-2-one Maleate] yielded a Ki [1] of 41 nM.

`O=c1c(N2CCNCC2)nc2ccc(F)cc2n1-c1ccccc1` [Example 8, 7-Fluoro-1-phenyl-3-piperazin-1-yl-1H-quinoxalin-2-one] showed a Ki [1] of 59 nM and a melting point of 142 to 143 °C.

For `Cc1ccc2nc(N3CCNCC3)c(=O)n(-c3ccccc3)c2c1` [Example 9, 7-Methyl-1-phenyl-3-piperazin-1-yl-1H-quinoxalin-2-one], the Ki [1] was 82 nM and the melting point was 166 to 168 °C.

For `CC(C)n1c(=O)c(N2CCCNCC2)nc2ccccc21` [Example 15, 3-[1,4]Diazepan-1-yl-1-isopropyl-1H-quinoxalin-2-one Maleate], the Ki [1] was 70 nM.

For `O=c1c(N2CCNCC2)nc2cc(F)ccc2n1-c1c(F)cccc1F` [Example 10, 1-(2,6-Difluoro-phenyl)-6-fluoro-3-piperazin-1-yl-1H-quinoxalin-2-one], the Ki [1] was 15 nM and the melting point was 146 to 147 °C.

`Cc1ccc(-n2c(=O)c(N3CCCNCC3)nc3ccccc32)cc1` [Example 13, 3-[1,4]Diazepan-1-yl-1-p-tolyl-1H-quinoxalin-2-one Maleate] showed a Ki [1] of 97 nM.

`Cc1ccc(-n2c(=O)c(N3CCCNCC3)nc3ccccc32)cc1` (as salt: maleate) [Example 13, 3-[1,4]Diazepan-1-yl-1-p-tolyl-1H-quinoxalin-2-one Maleate] showed a melting point of 199 to 200 °C.

`CC(C)n1c(=O)c(N2CCCNCC2)nc2ccccc21` (as salt: maleate) [Example 15, 3-[1,4]Diazepan-1-yl-1-isopropyl-1H-quinoxalin-2-one Maleate] gave a melting point of 147 to 149 °C.

`O=c1c(N2CCNCC2)nc2ccccc2n1-c1ccccc1` [Example 2, 1-Phenyl-3-piperazin-1-yl-1H-quinoxalin-2-one Hydrochloride] showed a Ki [1] of 21 nM.

For `O=c1c(N2CCNCC2)nc2ccccc2n1-c1ccccc1F` [Example 3, 1-(2-Fluoro-phenyl)-3-piperazin-1-yl-1H-quinoxalin-2-one Hydrochloride], the Ki [1] was 11 nM.

For `O=c1c(N2CCNCC2)nc2ccccc2n1-c1cccc(F)c1` [Example 6, 1-(3-Fluoro-phenyl)-3-piperazin-1-yl-1H-quinoxalin-2-one], the Ki [1] was 38 nM and the melting point was 149 to 150 °C.
